Test [1] concerns the target T1, Agg-1 (Homo sapiens, UniProt O75173).
T1 sequence (O75173 213-837): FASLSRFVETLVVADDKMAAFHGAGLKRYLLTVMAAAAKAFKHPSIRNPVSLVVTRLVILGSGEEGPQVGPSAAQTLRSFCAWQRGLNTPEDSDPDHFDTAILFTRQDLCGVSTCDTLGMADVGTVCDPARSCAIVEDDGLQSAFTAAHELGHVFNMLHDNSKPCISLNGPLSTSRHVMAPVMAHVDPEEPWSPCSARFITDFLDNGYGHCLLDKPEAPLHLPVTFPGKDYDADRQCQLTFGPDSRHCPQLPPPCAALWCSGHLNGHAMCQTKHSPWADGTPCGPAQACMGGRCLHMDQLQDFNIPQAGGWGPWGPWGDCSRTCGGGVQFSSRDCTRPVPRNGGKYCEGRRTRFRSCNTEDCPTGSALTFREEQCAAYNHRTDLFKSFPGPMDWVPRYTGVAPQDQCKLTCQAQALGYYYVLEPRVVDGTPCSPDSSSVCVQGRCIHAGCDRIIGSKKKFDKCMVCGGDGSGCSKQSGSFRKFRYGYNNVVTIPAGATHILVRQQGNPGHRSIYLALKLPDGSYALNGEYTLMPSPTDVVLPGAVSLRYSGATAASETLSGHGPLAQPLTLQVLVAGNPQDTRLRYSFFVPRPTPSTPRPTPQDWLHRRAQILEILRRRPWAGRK
In words: Agg-1 FRET assay. The format is biochemical. The settings on record: for inhibition at 33 µM: @ 33000 nM; for inhibition at 11 µM: @ 11000 nM; for inhibition at 7.5 µM: @ 7500 nM; for inhibition at 0.8 µM: @ 800 nM. From the text:
The Agg-1/Agg-2 FRET data for N-[(8-hydroxyquinolin-2-yl)(phenyl)methyl]-2-phenoxyacetamide and 2-{[(phenoxyacetyl)amino](phenyl)methyl}quinolin-8-yl phenoxyacetate is presented in Table 1.

The target of test [2] is T2, recombinant human Aggrecanase-2 Agg2-Phe628 (Homo sapiens, UniProt Q9UNA0).
T2 sequence (Q9UNA0 262-628 limits assumed): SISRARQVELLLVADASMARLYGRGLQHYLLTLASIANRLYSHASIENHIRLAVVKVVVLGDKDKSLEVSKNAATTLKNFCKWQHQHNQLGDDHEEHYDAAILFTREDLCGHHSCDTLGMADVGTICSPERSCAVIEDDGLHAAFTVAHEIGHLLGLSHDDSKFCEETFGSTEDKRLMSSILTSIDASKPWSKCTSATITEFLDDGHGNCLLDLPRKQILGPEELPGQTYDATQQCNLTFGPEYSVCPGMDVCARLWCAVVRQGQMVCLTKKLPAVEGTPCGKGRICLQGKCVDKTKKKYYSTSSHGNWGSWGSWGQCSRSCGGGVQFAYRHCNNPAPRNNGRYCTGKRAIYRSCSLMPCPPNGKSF
The test can be described thus: Aggrecanase 2 in vitro enzyme assay (Agg-2 FRET, quenched fluorescent peptide substrate). The format is biochemical. Also on record: purified recombinant human Aggrecanase-2 Agg2-Phe628 (MW=41,737); This is a truncated form of full-length human aggrecanase-2; made in house; host or cells: CHO cells. Conditions: for inhibition at […]: @ 2500 nM; for Agg-2 FRET Median PCT INHIB: concentration not given. The gist of the method: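 Continuous FRET assay with purified truncated human Aggrecanase-2 Agg2-Phe628 (CHO-expressed, 0.5 μg/ml final) and brevican-derived Abz/Dnp peptide (25 μM final) in 50 mM HEPES pH 7.5, 100 mM NaCl, 5 mM CaCl2, 0.1% CHAPS, 5% glycerol. Enzyme preincubated with compound before substrate; fluorescence (ex 340/em 420 nm) followed kinetically 40 min at 30 °C.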

The mark [3] stands for this setting: read-out: Agg-2 FRET Median IC50.
[4] abbreviates: read-out: Agg-1 IC50 (μM) or % Inhibition.
The mark [5] stands for this setting: read-out: Agg-2 IC50 (μM) or % Inhibition.

Like-named read-outs stand apart in the source and are kept apart here.

Results on 25 compounds are retold here after patent publication US20080269213A1, “8-Hydroxyquinoline compounds and methods thereof” (Wyeth, priority 2006, published 2008).

On to `O=C(COc1ccccc1)NC(c1ccc(-c2ccccc2)cc1)c1cc(Cl)c2cccnc2c1O` (centres unmarked) [N-[biphenyl-4-yl(5-chloro-8-hydroxyquinolin-7-yl)methyl]-2-phenoxyacetamide], for which the half-maximal inhibitory concentration (IC50) was greater than 200 µM in test [1] (read-out: Agg1 IC50) and 5.4 µM in test [2] (read-out: Agg2 IC50).
As to `O=C(COc1ccccc1)NC(c1cc(Cl)c2cccnc2c1O)c1cc2ccccc2c2ccccc12` (centres unmarked) [N-[(5-chloro-8-hydroxyquinolin-7-yl)(9-phenanthryl)methyl]-2-phenoxyacetamide], the inhibition at 33 µM in test [1] (read-out: Agg1 %) was 54%. The inhibition at 11 µM in test [2] (@ 11000 nM) worked out at 51%.
As for `Cn1c(C(NC(=O)COc2ccccc2)c2cc(Cl)c3cccnc3c2O)cc2ccccc21` (centres unmarked) [N-[(5-chloro-8-hydroxyquinolin-7-yl)(1-methyl-1H-indol-2-yl)methyl]-2-phenoxyacetamide], the inhibition at 11 µM in test [1] (read-out: Agg1 %) amounted to 48%. The inhibition at […] in test [2] is 57%.
Take `CC(=O)Nc1cccc(C(NC(=O)COc2ccccc2)c2cc(Cl)c3cccnc3c2O)c1` (centres unmarked) [Example 204, N-[[3-(acetylamino)phenyl](5-chloro-8-hydroxyquinolin-7-yl)methyl]-2-phenoxyacetamide]: the IC50 in test [1] (read-out: Agg1 IC50) was greater than 20 µM; in test [2] (read-out: Agg2 IC50), 3.76 µM; in test [2] (setting [3]), 3.76 µM.
`O=C(COc1ccccc1)NC(Cc1cc(Cl)c2cccnc2c1O)c1cccc(CN2CCCC2)c1` (centres unmarked): in test [1] (setting [4]), the inhibition at 200 µM amounted to 56%. The half-inhibitory concentration (IC50) in test [2] (IC50, read-out: Agg-2 IC50 (μM) or % Inhibition) turned out to be 20 µM.
`O=C(CNCc1cccc2ccccc12)NC(c1ccccc1)c1cc(Cl)c2cccnc2c1O` (centres unmarked) [Example 224, N-[(5-chloro-8-hydroxyquinolin-7-yl)(phenyl)methyl]-N2-(1-naphthylmethyl)glycinamide]: the concentration for half-maximal inhibition (IC50) in test [1] (read-out: Agg1 IC50) was 17.5 µM; in test [2] (read-out: Agg2 IC50), 1.56 µM; in test [2] (setting [3]), 1.56 µM.
Turning to `CCCCC#Cc1ccc(C(NC(=O)COc2ccccc2)c2cc(Cl)c3cccnc3c2O)cc1` (centres unmarked) [N-[(5-chloro-8-hydroxyquinolin-7-yl)(4-hex-1-yn-1-ylphenyl)methyl]-2-phenoxyacetamide], the inhibition at 50 µM in test [1] (@ 50000 nM, read-out: Agg1 %) was determined as 47%. Also, in test [2] (@ 33300 nM), the inhibition at 33.3 µM is 48%.
Consider `O=C(COc1ccccc1)NC(c1ccc(OCc2ccccc2)cc1)c1cc(Cl)c2cccnc2c1O` (centres unmarked) [N-[[4-(benzyloxy)phenyl](5-chloro-8-hydroxyquinolin-7-yl)methyl]-2-phenoxyacetamide], for which the 50% inhibitory concentration (IC50) in test [1] (read-out: Agg1 IC50) was greater than 67 µM; in test [2] (read-out: Agg2 IC50), 4.4 µM.
Consider `O=C(COc1ccccc1)NC(c1cc(Cl)c2cccnc2c1O)c1coc2ccccc2c1=O` (centres unmarked) [N-[(5-chloro-8-hydroxyquinolin-7-yl)(4-oxo-4H-chromen-3-yl)methyl]-2-phenoxyacetamide], for which, in test [1] (read-out: Agg1 IC50), the IC50 was roughly 11 µM. Also, the inhibition at […] in test [2] came out at 72%.
Regarding `CN(C)Cc1ccc(C(Cc2cc(Cl)c3cccnc3c2O)NC(=O)COc2ccccc2)o1` (centres unmarked), in test [1] (IC50, read-out: Agg-1 IC50 (μM) or % Inhibition), the IC50 is 16.8 µM. Further, the inhibition at 200 µM in test [2] (setting [5]) turned out to be 68%.
For the compound `Cn1cc(C(NC(=O)COc2ccccc2)c2cc(Cl)c3cccnc3c2O)c2ccccc21` (centres unmarked) [N-[(5-chloro-8-hydroxyquinolin-7-yl)(1-methyl-1H-indol-3-yl)methyl]-2-phenoxyacetamide], the inhibition at 11 µM in test [1] (read-out: Agg1 %) stood at 46%. Moreover, the inhibition at […] in test [2] turned out to be 53%.
Turning to `O=C(COc1ccccc1)NC(c1ccoc1)c1cc(Cl)c2cccnc2c1O` (centres unmarked) [N-[(5-chloro-8-hydroxyquinolin-7-yl)(3-furyl)methyl]-2-phenoxyacetamide], the IC50 was greater than 22 µM in test [1] (read-out: Agg1 IC50), 3.46 µM in test [2] (read-out: Agg2 IC50) and 3.46 µM in test [2] (setting [3]).
For `COc1cc(OCC(=O)NC(c2ccccc2)c2cc(Cl)c3cccnc3c2O)cc(OC)c1OC` (centres unmarked) [N-[(5-chloro-8-hydroxyquinolin-7-yl)(phenyl)methyl]-2-(3,4,5-trimethoxyphenoxy)acetamide], in test [1] (read-out: Agg1 %), the inhibition at 7.5 µM was 54%. Further, the IC50 in test [2] (read-out: Agg2 IC50) worked out at 1.8 µM.
For the compound `O=C(COc1ccccc1)NC(c1ccc(-c2ccncc2)cc1)c1cc(Cl)c2cccnc2c1O` (centres unmarked) [N-[(5-chloro-8-hydroxyquinolin-7-yl)(4-pyridin-4-ylphenyl)methyl]-2-phenoxyacetamide], in test [1] (read-out: Agg1 IC50), the concentration for half-maximal inhibition (IC50) is 4.7 µM. Further, the inhibition at 0.8 µM in test [2] (@ 800 nM) is 48%.
`CCC/C=C/C(NC(=O)COc1ccccc1)c1cc(Cl)c2cccnc2c1O` (centres unmarked) [N-[(2E)-1-(5-chloro-8-hydroxyquinolin-7-yl)hex-2-en-1-yl]-2-phenoxyacetamide]: the inhibition at 0.8 µM in test [1] (read-out: Agg1 %) is 30%. In test [2], the inhibition at […] is 47%.
On to `CCN(CC)c1ccc(C(NC(=O)COc2ccccc2)c2cc(Cl)c3cccnc3c2O)cc1` (centres unmarked) [Example 135, N-{(5-chloro-8-hydroxyquinolin-7-yl)[4-(diethylamino)phenyl]methyl}-2-phenoxyacetamide], for which the 50% inhibitory concentration (IC50) in test [1] (read-out: Agg1 IC50) is 22 to 67 µM; in test [2] (read-out: Agg2 IC50) it was 2.8 µM.
As for `CCCCOc1ccc(C(NC(=O)COc2ccccc2)c2cc(Cl)c3cccnc3c2O)cc1` (centres unmarked) [N-[(4-butoxyphenyl)(5-chloro-8-hydroxyquinolin-7-yl)methyl]-2-phenoxyacetamide], in test [1] (@ 67000 nM, read-out: Agg1 %), the inhibition at 67 µM came to 50%. Also, the inhibition at […] in test [2] was found to be 55%.
As for `O=C(NC(c1ccccc1Cl)c1cc(Cl)c2cccnc2c1O)OCc1ccccc1` (centres unmarked) [benzyl [(5-chloro-8-hydroxyquinolin-7-yl)(2-chlorophenyl)methyl]carbamate], the IC50 in test [1] (read-out: Agg1 IC50) is greater than 67 µM; in test [2] (read-out: Agg2 IC50), roughly 2.5 µM. In addition, in test [2], the “Agg-2 FRET Median PCT INHIB” value was 56%.
For `C=CC(NC(=O)COc1ccccc1)c1cc(Cl)c2cccnc2c1O` (centres unmarked) [Example 186, N-[1-(5-chloro-8-hydroxyquinolin-7-yl)prop-2-en-1-yl]-2-phenoxyacetamide], the inhibition at 0.8 µM in test [1] (read-out: Agg1 %) is 50%. Also, the inhibition at 3.7 µM in test [2] (@ 3700 nM) came to 38%.
As to `CC(C)c1ccc(C(NC(=O)COc2ccccc2)c2cc(Cl)c3cccnc3c2O)cc1` (centres unmarked) [N-[(5-chloro-8-hydroxyquinolin-7-yl)(4-isopropylphenyl)methyl]-2-phenoxyacetamide], in test [1] (read-out: Agg1 %), the inhibition at 33 µM was 47%. Also, the inhibition at […] in test [2] was found to be 45%.
Consider `O=C(COc1ccccc1)NC(c1ccccc1)c1cc(-n2cccc2)c2cccnc2c1O` (centres unmarked) [N-[[8-hydroxy-5-(1H-pyrrol-1-yl)quinolin-7-yl](phenyl)methyl]-2-phenoxyacetamide], for which the inhibition at 200 µM in test [1] (@ 200000 nM, read-out: Agg1 %) is 54%. Further, the IC50 in test [2] (read-out: Agg2 IC50) and in test [2] (setting [3]) was 1.64 µM in each case.
Turning to `Cc1ccc(Oc2cccc(C(NC(=O)COc3ccccc3)c3cc(Cl)c4cccnc4c3O)c2)cc1` (centres unmarked) [Example 130, N-{(5-chloro-8-hydroxyquinolin-7-yl)[3-(4-methylphenoxy)phenyl]methyl}-2-phenoxyacetamide], the inhibition at 22 µM in test [1] (@ 22000 nM, read-out: Agg1 %) stood at 52%. For the same compound, the inhibition at 7.4 µM in test [2] (@ 7400 nM) is 58%.
As to `O=C(NC(Cc1cc(Cl)c2cccnc2c1O)c1cccc(CN2CCCC2)c1)c1ccc(-c2ccccc2)cc1` (centres unmarked) [drawing 65], the inhibition at 200 µM in test [1] (setting [4]) was found to be 54%. For the same compound, the inhibition at 50 µM in test [2] (setting [5]) is 50%.
Consider `O=C(COc1ccccc1)NC(/C=C/c1ccccc1)c1cc(Cl)c2cccnc2c1O` (centres unmarked) [N-[(2E)-1-(5-chloro-8-hydroxyquinolin-7-yl)-3-phenylprop-2-en-1-yl]-2-phenoxyacetamide], for which the inhibition at 7.5 µM in test [1] (read-out: Agg1 %) was determined as 50%. Further, the concentration for half-maximal inhibition (IC50) in test [2] (read-out: Agg2 IC50) was determined as 1.6 µM.
On to `O=C(COc1ccccc1)NC(c1ccc(-c2ccccc2)o1)c1cc(Cl)c2cccnc2c1O` (centres unmarked) [N-[(5-chloro-8-hydroxyquinolin-7-yl)(5-phenyl-2-furyl)methyl]-2-phenoxyacetamide], for which the IC50 in test [1] (read-out: Agg1 IC50) was greater than 22 µM; in test [2] (read-out: Agg2 IC50), greater than 5 µM. Further, the “Agg-2 FRET Median PCT INHIB” value in test [2] was found to be 54%.

What is called IC50 is the concentration that gives 50% inhibition.
